What all share (assay): Cell growth inhibition assay (CellTiter-Glo cell viability, 7 days)
Holding throughout (format): cell-based
A general note: Cellular ATP, detected with luciferase, serves as a proxy for viable cell number.

Test [1] relates to MDA-MB-436 (mutated BRCA1) cell lines. The conditions noted are these: Homo sapiens, 168 h, MDA-MB-436 cells.
Another test has as its system DLD-1 parental. As to conditions: Homo sapiens, 168 h, DLD-1 parental cells. The text has this: Example A: Cell Growth Inhibition Assay
The objective of this study is to evaluate the effect of invention compounds on cell proliferation through the cell viability assay in DLD-1 BRCA2(−/−) and parental isogenic pair and MDA-MB-436 (mutated BRCA1) cell lines. The CellTiter-Glo (CTG) based cell viability assay is designed to determine the number of viable cells in the culture because of compound effect, by quantifying ATP, which indicates the presence of metabolically active cells.
DLD-1 BRCA2(−/−) and parental isogenic pair were cultured in RPMI 1640 supplemented with 10% fetal bovine serum (FBS), and MDA-MB-436 cells were cultured in DMEM supplemented with 10% FBS. Both are culture at 37° C. with 5% CO2. Invention compounds were distributed to the 384 well plate (Corning, 3764) using Echo acoustic liquid handler to form a 1:3 serially diluted final concentration with top dose of 10 or 30 μM. The cells were seeded into the plate in the density of 50 cells/well (DLD-1 parental), 200 cells/well (DLD-1 BRCA2−/−), or 500 cells/well (MDA-MB-436). After a short spun, the cells were cultured in a well moisturized incubator at 37° C. with 5% CO2 for 7 days without disturbance. The cell viability was measured by CellTiter Glo 2.0 assay kit (Promega, G9243), and growth inhibition rate was calculated and plotted against final compound concentration, and the data were fitted in Xfit to generate IC50.

A further test relates to DLD-1 BRCA2(−/−). As to conditions: Homo sapiens, 168 h, DLD-1 BRCA2(-/-) cells.

pEC50: −log10 of the molar value.

For orientation: pEC50 means the EC50 on a negative log10 scale, so that one unit is a factor of ten. As to `CCc1cc2ncc(CN3CCN(c4ccc(C(=O)NC)nc4)[C@@H]4C[C@@H]43)cc2[nH]c1=O` (stereo in doubt) [Example 3A, rel-5-[(1R,6S)-5-[(7-ethyl-6-oxo-5H-1,5-naphthyridin-3-yl)methyl]-2,5-diazabicyclo[4.1.0]heptan-2-yl]-N-methylpyridine-2-carboxamide], the pEC50 is 7.62 in test [1], < 4.52 in the test on DLD-1 parental and 6.64 in the test with DLD-1 BRCA2(−/−).
In the same order, the values of `CCc1cc2ncc(CN3CCN(c4ccc(C(=O)NC)nc4)[C@H]4C[C@H]43)cc2[nH]c1=O` (stereo in doubt) [Example 28] are 9.10, 4.48 and 8.49.
In the same order, the values of `CCc1cc2ncc(CN3CCN(c4ccc(C(=O)NC)nc4C#N)[C@H](C)C3)cc2[nH]c1=O` [Example 4, 6-cyano-5-[(2R)-4-[(7-ethyl-6-oxo-5H-1,5-naphthyridin-3-yl)methyl]-2-methylpiperazin-1-yl]-N-methylpyridine-2-carboxamide] are 9.16, < 4.52 and 8.80.
For `CCc1cc2ncc(CN3CCN(c4ccc(C(=O)NC)nc4C4CC4)CC3)cc2[nH]c1=O` [Example 6, 6-cyclopropyl-5-(4-((7-ethyl-6-oxo-5,6-dihydro-1,5-naphthyridin-3-yl)methyl)piperazin-1-yl)-N-methylpicolinamide], the pEC50 in test [1] was 8.77; in the test on DLD-1 parental it was 4.96; in the test with DLD-1 BRCA2(−/−), 8.55.
In the same order, the values of `CCc1cc2ncc(CN3CCN(c4ccc(C(=O)NC)c(F)c4)CC3)cc2[nH]c1=O` [Example 7, 4-{4-[(7-ethyl-6-oxo-5H-1,5-naphthyridin-3-yl)methyl]piperazin-1-yl}-2-fluoro-N-methylbenzamide] are 8.89, 3.52 and 8.51.
For `CCc1cc2ncc(CN3CC=C(c4ccc(C(=O)NC)nc4)CC3)cc2[nH]c1=O` [Example 8, 1′-((7-ethyl-6-oxo-5,6-dihydro-1,5-naphthyridin-3-yl)methyl)-N-methyl-1′,2′,3′,6′-tetrahydro-[3,4′-bipyridine]-6-carboxamide], the values for the negative-log EC50 (pEC50) (in test [1]; with DLD-1 parental; with DLD-1 BRCA2(−/−)) were 9.60, 4.05 and 9.00, respectively.
The matching figures for `CCc1cc2ccc(CN3CCN(c4ccc(C#N)cn4)CC3)cc2[nH]c1=O` [Example 9, 6-{4-[(3-ethyl-2-oxo-1H-quinolin-7-yl)methyl]piperazin-1-yl}pyridine-3-carbonitrile]: 8.82, 4.89 and 8.46.
Consider `CNC(=O)c1ccc(N2CCN(Cc3ccc4c5c(c(=O)[nH]c4c3)CCC5)CC2)cn1` [Example 10, N-methyl-5-[4-({4-oxo-1H,2H,3H,5H-cyclopenta[c]quinolin-7-yl}methyl)piperazin-1-yl]pyridine-2-carboxamide], for which the values for the pEC50 (in test [1]; with DLD-1 parental; with DLD-1 BRCA2(−/−)) were 9.17, 2.85 and 8.59, respectively.
In the case of `CNC(=O)c1ccc(N2CCN(Cc3ccc4c(c3)[nH]c(=O)c3ccoc34)CC2)cn1` [Example 11, N-methyl-5-[4-({4-oxo-5H-furo[3,2-c]quinolin-7-yl}methyl)piperazin-1-yl]pyridine-2-carboxamide], the figures for the pEC50 (in test [1]; in the test on DLD-1 parental; in the test with DLD-1 BRCA2(−/−)) were 8.96, 3.36 and 8.55, respectively.
As for `CCc1cc2ncc(CN3CCN(c4ccc(C(=O)NC5CC5)nc4)CC3)cc2[nH]c1=O` [Example 12, N-cyclopropyl-5-{4-[(7-ethyl-6-oxo-5H-1,5-naphthyridin-3-yl)methyl]piperazin-1-yl}pyridine-2-carboxamide], the negative-log EC50 (pEC50) in test [1] is 9.21; in the test with DLD-1 parental, 4.29; in the test on DLD-1 BRCA2(−/−), 8.96.
In the same order, the values of `CCc1cc2ncc(CN3CCN(c4ccc(C(=O)NCC(F)F)nc4)CC3)cc2[nH]c1=O` [Example 13, N-(2,2-difluoroethyl)-5-{4-[(7-ethyl-6-oxo-5H-1,5-naphthyridin-3-yl)methyl]piperazin-1-yl} pyridine-2-carboxamide] are 9.27, < 4.52 and 9.00.
As for `CCc1cc2ncc(CN3CCN(c4ccc(C(=O)NC)nc4C(F)F)CC3)cc2[nH]c1=O` [Example 14, 6-(difluoromethyl)-5-{4-[(7-ethyl-6-oxo-5H-1,5-naphthyridin-3-yl)methyl]piperazin-1-yl}-N-methylpyridine-2-carboxamide], the pEC50 in test [1] was 9.28; in the test with DLD-1 parental, < 4.52; in the test on DLD-1 BRCA2(−/−), 9.00.
The matching figures for `CCc1cc2ncc(CN3CCC(c4ccc(C(=O)NC)nc4)CC3)cc2[nH]c1=O` [Example 16, 5-(1-((7-ethyl-6-oxo-5,6-dihydro-1,5-naphthyridin-3-yl)methyl)piperidin-4-yl)-N-methylpicolinamide]: 8.89, < 4.52 and 8.38.
In the same order, the values of `CCc1cc2ncc(CN3CCN(c4ccc(C(=O)NC)cc4C#N)CC3)cc2[nH]c1=O` [Example 17, 3-cyano-4-{4-[(7-ethyl-6-oxo-5H-1,5-naphthyridin-3-yl)methyl]piperazin-1-yl}-N-methylbenzamide] are 8.96, < 4.52 and 8.68.
The matching figures for `CCc1cc2ncc(CN3CCN4c5ccc(C(=O)NC)nc5OC[C@H]4C3)cc2[nH]c1=O` [Example 22A, (R)-3-((7-ethyl-6-oxo-5,6-dihydro-1,5-naphthyridin-3-yl)methyl)-N-methyl-1,2,3,4,4a,5-hexahydropyrazino[1,2-d]pyrido[2,3-b][1,4]oxazine-8-carboxamide]: 9.00, < 4.52 and 8.82.
`CCc1cc2ncc(CN3CC(Oc4ccc(C(=O)NC)nc4)C3)cc2[nH]c1=O` [Example 25, 5-({1-[(7-ethyl-6-oxo-5H-1,5-naphthyridin-3-yl)methyl]azetidin-3-yl}oxy)-N-methylpyridine-2-carboxamide]: the pEC50 is 8.38 in test [1], < 4.52 in the test with DLD-1 parental and 8.06 in the test with DLD-1 BRCA2(−/−).
With `CCc1cc2ncc(CN3CCN(c4cnc(C(=O)NC)s4)CC3)cc2[nH]c1=O` [Example 30], the pEC50 in test [1] is 7.24; in the test on DLD-1 parental it was 4.40; in the test with DLD-1 BRCA2(−/−), 6.66.
Regarding `CNC(=O)c1ccc(N2CCN(Cc3ccc4cc(OC(F)F)c(=O)[nH]c4c3)CC2)cn1` [Example 31], the negative logarithm of the EC50 (pEC50) is 7.82 in test [1], 4.25 in the test on DLD-1 parental and 7.32 in the test with DLD-1 BRCA2(−/−).
Turning to `CCc1cc2ncc(CN3CCN(c4ccc(-n5cnnc5)cc4)CC3)cc2[nH]c1=O` [Example 32], the pEC50 in test [1] was 7.82; with DLD-1 parental it was < 4.52; in the test on DLD-1 BRCA2(−/−), 7.11.
In the same order, the values of `CNC(=O)c1ccc(N2CCN(Cc3cnc4cc(C)c(=O)[nH]c4c3)CC2)cn1` [Example 33] are 8.51, < 4.52 and 8.19.
The matching figures for `[2H]C([2H])(c1cnc2cc(CC)c(=O)[nH]c2c1)N1CCN(c2cnc(C(=O)NC)c(F)c2)CC1` [Example 35]: 8.89, < 4.52 and 8.64.
The matching figures for `CCc1cc2ncc(CN3CCN(c4ccc(C(=O)NC)nc4)[C@H](CF)C3)cc2[nH]c1=O` [Example 68]: 8.82, < 4.52 and 8.39.
`CNC(=O)c1ccc(N2CCN(Cc3cnc4c(c3)[nH]c(=O)c3ccoc34)CC2)cn1` [Example 72]: the negative-log EC50 (pEC50) in test [1] is 8.60; in the test on DLD-1 parental, < 4.52; with DLD-1 BRCA2(−/−) it was 8.38.
For `CCc1cc2ncc(CN3C[C@@H]4C(c5ccc(C(=O)NC)nc5)[C@@H]4C3)cc2[nH]c1=O` (stereo partly drawn) [Example 146], the pEC50 in test [1] is 8.04; in the test on DLD-1 parental it was < 4.52; with DLD-1 BRCA2(−/−) it was 6.49.

Source of the values: US11591331B2, “PARP1 inhibitors and uses thereof” (Xinthera, Inc., priority 2021, dated 2023).
